Assay results from PMC3306499 (ACS Chemical Biology, 2012).
pIC50: −log10 of the molar value. Counter-ions that a name gives are not always drawn. Like-named read-outs stand apart in the source and are kept apart here.

Experiments:
human A3G (APOBEC3G) = human A3G (APOBEC3G) (Homo sapiens, UniProt Q9HC16); experiment: fluorescence-based ssDNA cytosine deaminase assay, A3G; assay type: biochemical
human A3A (APOBEC3A) = human A3A (APOBEC3A) (Homo sapiens, UniProt P31941); experiment: fluorescence-based ssDNA cytosine deaminase assay, A3A; assay type: biochemical
[1] = target: E. coli uracil DNA glycosylase (UDG) (Escherichia coli, UniProt P12295); experiment: UDG assay; assay type: biochemical
HIV-1 RNase H = HIV-1 RNase H (Human immunodeficiency virus type 1 group M subtype B, UniProt P04585); experiment: HIV-1 RNase H inhibition assay; assay type: biochemical
HIV-1 integrase = HIV-1 integrase (Human immunodeficiency virus type 1 group M subtype B, UniProt P04585); experiment: concerted HIV-1 integration assay; assay type: biochemical
HIV RNase H = details: read-out: IC50 Values RNase H, cited from earlier work
A3G-ssDNA complex = A3G-ssDNA complex (Homo sapiens, UniProt Q9HC16); experiment: EMSA of A3G-ssDNA complex formation; assay type: binding; details: 0.64 μM A3G, 0.08 μM ssDNA, 50 μM compound, dose response 2, 5, 10 μM
[2] = cited from earlier work
[3] = tested on: A3A-loop 6 (C321 loop of A3G swapped into A3A); experiment: deaminase assay with A3A-loop 6 swap mutant; assay type: biochemical, human; details: 50 μM compound
[4] = read-out: IC50 Values A3G, dose response, purified full-length A3G-mycHis
[5] = read-out: IC50 Values A3A, dose response, purified A3A-mycHis
[6] = read-out: IC50 Values UDG, no deaminase, uracil ssDNA substrate
[7] = read-out: IC50 Values RNase H, A3G inhibitors, this study

Chain of E. coli uracil DNA glycosylase (UDG) (P12295 whole entry): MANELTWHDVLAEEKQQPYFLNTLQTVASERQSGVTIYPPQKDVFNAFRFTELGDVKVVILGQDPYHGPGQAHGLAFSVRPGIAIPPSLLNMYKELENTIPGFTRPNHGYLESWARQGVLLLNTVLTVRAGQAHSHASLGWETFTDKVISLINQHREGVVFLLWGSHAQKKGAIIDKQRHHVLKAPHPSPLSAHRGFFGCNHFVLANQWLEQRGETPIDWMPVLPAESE
Chain of human A3A (APOBEC3A) (P31941 whole entry): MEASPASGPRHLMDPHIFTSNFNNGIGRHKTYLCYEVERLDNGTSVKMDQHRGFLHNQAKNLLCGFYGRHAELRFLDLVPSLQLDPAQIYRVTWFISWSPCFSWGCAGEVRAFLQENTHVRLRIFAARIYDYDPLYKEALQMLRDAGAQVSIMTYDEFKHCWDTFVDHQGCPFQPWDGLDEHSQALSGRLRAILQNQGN
Chain of human A3G (APOBEC3G) (Q9HC16 whole entry): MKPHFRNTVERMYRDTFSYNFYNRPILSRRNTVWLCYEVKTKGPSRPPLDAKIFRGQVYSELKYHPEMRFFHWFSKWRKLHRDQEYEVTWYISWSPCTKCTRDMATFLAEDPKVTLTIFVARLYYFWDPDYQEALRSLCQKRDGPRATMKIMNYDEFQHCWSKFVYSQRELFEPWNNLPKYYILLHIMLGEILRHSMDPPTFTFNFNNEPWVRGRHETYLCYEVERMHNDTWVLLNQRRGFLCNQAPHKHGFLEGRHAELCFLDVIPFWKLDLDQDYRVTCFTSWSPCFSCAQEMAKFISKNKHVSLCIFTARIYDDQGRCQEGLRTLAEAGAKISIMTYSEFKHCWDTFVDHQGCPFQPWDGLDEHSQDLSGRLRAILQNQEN
Chain of A3G-ssDNA complex (Q9HC16 whole entry, one chain of several): as the sequence (Q9HC16 whole entry) above

Oc1cc2c(cc1O)[C@H]1c3ccccc3CN[C@@H]1CC2 (racemic) [MN8, Dihydrexidine hydrochloride]
pIC50 (human A3G (APOBEC3G)): 6.23
pIC50 (human A3A (APOBEC3A)): < 3.70
pIC50 [1]: < 3.70
pIC50 (HIV-1 RNase H): < 4.60
pIC50 (HIV-1 integrase): < 4.60

NC1CCc2cc(O)c(O)cc2C1 (racemic) [MN13, (±)-2-Amino-6,7-dihydroxy-1,2,3,4-tetrahydronaphthalene hydrobromide]
pIC50 (human A3G (APOBEC3G); [4]): 6.15
pIC50 (human A3A (APOBEC3A); [5]): < 3.70
pIC50 [1, 6]: < 3.70
pIC50 (HIV-1 RNase H; [7]): < 4.60

Oc1cc2c(cc1O)C(c1ccccc1)CNCC2 (racemic) [MN15, (±)-SKF-38393 hydrochloride]
pIC50 (human A3G (APOBEC3G); [4]): 4.57
pIC50 (human A3A (APOBEC3A); [5]): < 3.70
pIC50 [1, 6]: < 3.70

NC(Cc1cc(O)c(O)cc1O)C(=O)O (racemic) [MN23, 6-Hydroxy-DL-DOPA]
inhibition of A3G catalytic activity (in words) (human A3G (APOBEC3G)): inhibit A3G catalytic activity
pIC50 (human A3G (APOBEC3G); [4]): 5.40
inhibition of A3A (in words) (human A3A (APOBEC3A)): inhibit A3A
pIC50 [1, 6]: < 3.70

CC(N)(Cc1ccc(O)c(O)c1)C(=O)O (racemic) [MN28, (±)–3-(3,4-Dihydroxyphenyl)-2-methyl-DL-alanine]
pIC50 (human A3G (APOBEC3G); [4]): 4.89
pIC50 (human A3A (APOBEC3A); [5]): < 3.70
pIC50 [1, 6]: < 3.70
pIC50 (HIV-1 RNase H; [7]): < 4.60

O=C(O)c1ccc(-c2cccc(/C=N/NC(=O)c3cc(O)c(O)c(O)c3)c2)cc1 [BHMP-07, reference compound]
pIC50 (human A3G (APOBEC3G); [4]): 4.89
pIC50 (HIV RNase H; published value): 7.00

O=C(/C=C/c1ccc(O)c(O)c1)OCCc1ccccc1 [CAPE, caffeic acid phenethyl ester, reference compound]
pIC50 (human A3G (APOBEC3G)): < 4.00
inhibition of A3G catalytic activity (in words) (human A3G (APOBEC3G)): no significant effect
inhibition of A3A (in words) (human A3A (APOBEC3A)): no significant effect

O=C(/C=C/c1ccc(O)c(O)c1)O[C@@H]1C[C@](O)(C(=O)O)C[C@@H](O)[C@H]1O [Chlorogenic acid, reference compound]
pIC50 (human A3G (APOBEC3G)): < 4.00
inhibition of A3G catalytic activity (in words) (human A3G (APOBEC3G)): no effect

O=C(NN=Cc1c(O)ccc2ccccc12)c1cc(O)c(O)c(O)c1 [KMMP-02 (THBNH), reference compound]
pIC50 (human A3G (APOBEC3G); [4]): < 4.00
pIC50 (HIV RNase H; ref M. Parniak, unpublished): 6.70

COc1ccc2ccccc2c1/C=N/NC(=O)c1ccc(O)c(O)c1 [KMMP-05 (DHBNH), reference compound]
pIC50 (human A3G (APOBEC3G); [4]): < 4.00
pIC50 (HIV RNase H; published value): 6.30

O=C(/C=C/c1ccc(O)c(O)c1)O[C@@H](C(=O)O)[C@@H](OC(=O)/C=C/c1ccc(O)c(O)c1)C(=O)O [L-Chicoric Acid, reference compound]
inhibition of A3G catalytic activity (in words) (human A3G (APOBEC3G)): inhibited
pIC50 (human A3G (APOBEC3G); [4]): 5.55
inhibition of A3A (in words) (human A3A (APOBEC3A)): inhibited

O=C(O)[C@H](O)[C@@H](O)C(=O)O [L-Tartaric Acid, reference compound]
pIC50 (human A3G (APOBEC3G)): < 4.00
inhibition of A3G catalytic activity (in words) (human A3G (APOBEC3G)): no effect

O=C(O)C1=CC(=C(c2ccc(O)c(C(=O)O)c2)c2ccc(O)c(C(=O)O)c2)C=CC1=O [MN1, Aurintricarboxylic acid]
pIC50 (human A3G (APOBEC3G)): 6.31
pIC50 [1]: 4.82
inhibition of UDG activity (in words) [1]: blocked UDG activity

CN1CCc2cccc3c2[C@H]1Cc1ccc(O)c(O)c1-3 [MN2, R-(−)-Apomorphine hydrochloride hemihydrate]
pIC50 (human A3G (APOBEC3G)): 5.89
pIC50 (human A3A (APOBEC3A)): < 3.70
pIC50 [1]: < 3.70
pIC50 (HIV-1 RNase H): < 4.60
pIC50 (HIV-1 integrase): < 4.60

CC(=O)NCCc1ccc(O)c(O)c1 [MN3, N-Acetyldopamine monohydrate]
pIC50 (human A3G (APOBEC3G); [4]): 6.35
pIC50 (human A3A (APOBEC3A); [5]): < 3.70

O=C1C=CC(=O)C=C1 [MN4, p-Benzoquinone]
pIC50 (human A3G (APOBEC3G); [4]): 6.77
pIC50 (human A3A (APOBEC3A); [5]): < 3.70

O=C(O)/C=C/c1ccc(O)c(O)c1 [MN5, Caffeic acid]
pIC50 (human A3G (APOBEC3G)): 4.07
pIC50 (human A3A (APOBEC3A)): < 3.70
pIC50 [1]: < 3.70

O=C(O)c1cc[c]([Hg][Cl])cc1 [MN6, 4-Chloromercuribenzoic acid]
pIC50 (human A3G (APOBEC3G); [4]): 6.89
pIC50 (human A3A (APOBEC3A); [5]): 6.59

CC(=O)OCC1=C(C(=O)O)N2C(=O)[C@@H](NC(=O)CSc3ccncc3)[C@H]2SC1 [MN7, Cephapirin sodium salt]
pIC50 (human A3G (APOBEC3G)): 5.12
pIC50 (human A3A (APOBEC3A)): 4.92

C[C@@](Cc1ccc(O)c(O)c1)(NN)C(=O)O [MN9, S-(−)-Carbidopa]
pIC50 (human A3G (APOBEC3G)): 5.28
pIC50 (human A3A (APOBEC3A)): < 3.70

CN(N=O)c1cc(O)ccc1O [MN10, Dephostatin]
pIC50 (human A3G (APOBEC3G)): 6.37
pIC50 (human A3A (APOBEC3A)): 3.82
pIC50 [1]: < 3.70
inhibition of A3G's ssDNA binding activity (A3G-ssDNA complex formation) (A3G-ssDNA complex): only exceptions
stability [2]: too unstable for most biological applications

O=C(O)Cc1ccc(O)c(O)c1 [MN12, 3,4-Dihydroxyphenylacetic acid]
pIC50 (human A3G (APOBEC3G)): 4.72
pIC50 (human A3A (APOBEC3A)): < 3.70
pIC50 [1]: < 3.70

CCCN1CCc2cccc3c2[C@H]1Cc1ccc(O)c(O)c1-3 [MN14, R(−)-Propylnorapomorphine hydrochloride]
pIC50 (human A3G (APOBEC3G); [4]): 5.19
pIC50 (human A3A (APOBEC3A); [5]): < 3.70

CN1CCc2cc(O)cc3c2[C@H]1Cc1ccc(O)c(O)c1-3 [MN16, R(−)-2,10,11-Trihydroxyaporphine hydrobromide]
pIC50 (human A3G (APOBEC3G); [4]): 5.77
pIC50 (human A3A (APOBEC3A); [5]): < 3.70
pIC50 [1, 6]: < 3.70
pIC50 (HIV-1 RNase H; [7]): < 4.60

CCCN1CCc2cc(O)cc3c2[C@H]1Cc1ccc(O)c(O)c1-3 [MN17, R(−)-2,10,11-Trihydroxy-N-propylnoraporphine hydrobromide hydrate]
pIC50 (human A3G (APOBEC3G); [4]): 4.89
pIC50 (human A3A (APOBEC3A); [5]): < 3.70

Oc1ccc(O)cc1 [MN21, Hydroquinone]
pIC50 (human A3A (APOBEC3A)): < 3.70

Oc1ccc(Cn2cc[nH]c2=S)cc1 [MN22, 1-(4-Hydroxybenzyl)imidazole-2-thio]
pIC50 (human A3A (APOBEC3A); [5]): < 3.70
pIC50 [1, 6]: < 3.70

O=c1cc(O)cc(/C=C/c2ccc(O)c(O)c2)o1 [MN24, Hispidin]
pIC50 (human A3G (APOBEC3G)): 5.70
pIC50 (human A3A (APOBEC3A)): < 3.70
pIC50 [1]: < 3.70
inhibitory activity against RNase H (in words) (HIV-1 RNase H): modest micromolar inhibitory activity
pIC50 (HIV-1 integrase): < 4.60

CN[C@@H](C)[C@H](O)c1ccccc1 [MN25, (1R,2S)-(−)-Ephedrine]
pIC50 (human A3G (APOBEC3G); [4]): 5.89
pIC50 (human A3A (APOBEC3A); [5]): 4.27

OC[C@H]1O[C@H]([S-])[C@H](O)[C@@H](O)[C@@H]1O.[Au+] [MN26, Aurothioglucose hydrate]
pIC50 (human A3G (APOBEC3G); [4]): 6.44
pIC50 (human A3A (APOBEC3A); [5]): < 3.70
pIC50 [1, 6]: < 3.70

O=c1c(O)c(-c2cc(O)c(O)c(O)c2)oc2cc(O)cc(O)c12 [MN27, Myricetin]
pIC50 (human A3G (APOBEC3G)): 5.47
inhibition of A3G catalytic activity (in words) (human A3G (APOBEC3G)): inhibit A3G catalytic activity
inhibition of A3A (in words) (human A3A (APOBEC3A)): inhibit A3A
pIC50 [1]: < 3.70

CC(Cc1ccc(O)c(O)c1)C(C)Cc1ccc(O)c(O)c1 (stereo not drawn) [MN31, Nordihydroguaiaretic acid]
pIC50 (human A3G (APOBEC3G); [4]): 5.06
pIC50 (human A3A (APOBEC3A); [5]): < 3.70

Oc1cc(O)cc(/C=C/c2ccc(O)c(O)c2)c1 [MN32, Piceatannol]
pIC50 (human A3G (APOBEC3G)): 5.74
pIC50 (human A3A (APOBEC3A)): 3.70
pIC50 [1]: < 3.70
pIC50 (HIV-1 RNase H): 6.41
pIC50 (HIV-1 integrase): < 4.60
inhibition of A3A-loop 6 deaminase activity [3]: very little inhibition

Cc1nc(N=Nc2cc(S(=O)(=O)O)c3cc([N+](=O)[O-])cc(S(=O)(=O)O)c3c2)c(COP(=O)(O)O)c(C=O)c1O [MN33, PPNDS tetrasodium]
pIC50 (human A3G (APOBEC3G); [4]): 5.25
pIC50 (human A3A (APOBEC3A); [5]): 5.48

CN=c1nc(-c2ccccc2)n(-c2ccccc2)s1 [MN34, SCH-202676 hydrobromide]
pIC50 (human A3G (APOBEC3G); [4]): 4.54
pIC50 (human A3A (APOBEC3A); [5]): 3.51
pIC50 [1, 6]: < 3.70

Br.Oc1ccc(C2CNCc3sccc32)cc1O (stereo not drawn) [MN35, SKF-89626 hydrobromide]
pIC50 (human A3G (APOBEC3G); [4]): 5.89
pIC50 (human A3A (APOBEC3A); [5]): < 3.70
pIC50 [1, 6]: < 3.70
inhibitory activity against RNase H (in words) (HIV-1 RNase H): modest micromolar inhibitory activity
pIC50 (HIV-1 RNase H; [7]): 5.66
inhibition of A3G's ssDNA binding activity (A3G-ssDNA complex formation) (A3G-ssDNA complex): only exceptions

O=C(O)[C@]1(O)C[C@@H](O)[C@@H](O)[C@H](O)C1 [Quinic Acid, reference compound]
pIC50 (human A3G (APOBEC3G)): < 4.00
inhibition of A3G catalytic activity (in words) (human A3G (APOBEC3G)): no effect

CC(C)c1ccc(O)c(=O)c(O)c1 [β-Thujaplicinol, reference compound]
pIC50 (human A3G (APOBEC3G)): < 4.00
pIC50 (HIV RNase H; published value): 6.68

Manicol [reference compound]
pIC50 (human A3G (APOBEC3G); [4]): < 4.00
pIC50 (HIV RNase H; published value): 6.22

R(−)-N-Allylnorapomorphine hydrobromide [MN11]
pIC50 (human A3G (APOBEC3G); [4]): 5.54
pIC50 (human A3A (APOBEC3A); [5]): < 3.70
